Drawing on US12606520B2, “Calpain-2 inhibitor compounds and methods of treatment” (WESTERN UNIVERSITY OF HEALTH SCIENCES, priority 2020, dated 2026), this text covers IC50 for one compound.

This test concerns the target T1, human calpain-1 (purified from erythrocytes, ecalpain-1) (Homo sapiens, UniProt P07384).
T1 construct: human calpain-1 (purified from erythrocytes, ecalpain-1); from tissue; host or cells: human erythrocytes
T1 sequence (P07384 1-714): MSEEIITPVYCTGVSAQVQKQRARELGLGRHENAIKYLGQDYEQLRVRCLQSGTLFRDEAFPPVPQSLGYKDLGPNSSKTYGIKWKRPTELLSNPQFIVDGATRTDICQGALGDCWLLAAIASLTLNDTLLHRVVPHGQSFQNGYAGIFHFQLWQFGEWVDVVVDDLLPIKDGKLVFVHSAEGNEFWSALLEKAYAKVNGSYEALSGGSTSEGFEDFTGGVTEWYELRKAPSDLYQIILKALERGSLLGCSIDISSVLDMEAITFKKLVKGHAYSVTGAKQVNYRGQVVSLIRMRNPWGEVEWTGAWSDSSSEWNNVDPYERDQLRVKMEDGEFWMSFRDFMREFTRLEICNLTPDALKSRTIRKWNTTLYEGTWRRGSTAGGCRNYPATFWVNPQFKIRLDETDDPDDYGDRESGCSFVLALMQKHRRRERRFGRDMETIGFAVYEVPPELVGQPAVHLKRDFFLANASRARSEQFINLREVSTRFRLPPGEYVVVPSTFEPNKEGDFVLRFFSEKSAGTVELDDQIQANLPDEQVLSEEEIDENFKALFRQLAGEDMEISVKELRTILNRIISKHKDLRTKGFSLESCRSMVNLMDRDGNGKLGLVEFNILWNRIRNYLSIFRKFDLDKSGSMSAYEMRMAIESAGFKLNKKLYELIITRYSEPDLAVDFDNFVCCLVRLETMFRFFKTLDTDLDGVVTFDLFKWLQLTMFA
T1 sequence (P04632 1-268 partner): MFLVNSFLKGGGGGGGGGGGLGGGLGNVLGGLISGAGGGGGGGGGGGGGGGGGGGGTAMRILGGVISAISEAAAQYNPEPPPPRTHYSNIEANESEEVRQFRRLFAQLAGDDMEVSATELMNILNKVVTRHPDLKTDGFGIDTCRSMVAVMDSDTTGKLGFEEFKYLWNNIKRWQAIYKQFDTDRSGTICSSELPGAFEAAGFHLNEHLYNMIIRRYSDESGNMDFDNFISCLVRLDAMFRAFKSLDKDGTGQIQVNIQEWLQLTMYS
Nature of the test: Inhibition of human calpain-1 purified from erythrocytes. The test is classed as biochemical. The procedure:
Various concentrations of NA112 in the liposomal formulation were incubated with human calpain-1 (purified from erythrocytes, ecalpain-1) or a recombinant human calpain-2 (hcalpain-2) and calpain activity assayed as in FIG. 1. IC50 were determined and transformed into Ki values (FIG. 10A, 10B). Values previously obtained with NA112 dissolved in DMSO are shown for comparison (FIG. 10B).
Cerebellar homogenates from wild-type (WT) or calpain-1 Knock-out (KO) mice were incubated with 20 μM calcium to activate calpain-1 or with 2 mM calcium to activate calpain-2, respectively, and increasing concentrations of NA184.
Like in NA112, there are 2 chiral centers in NA184. The inhibitory activity of the compounds NA184A (S-S isomer) and NA184B (S-R stereoisomer) against erythrocyte human calpain-1 (ecalpain-1) and recombinant human calpain-2 (hcalpain-2) were determined.

Regarding `CCC(NC(=O)[C@H](CC(C)C)NC(=O)NCc1ccccc1)C(=O)C(=O)NCc1cccc(Cl)c1OC` (stereo partly drawn) [NA184, (2S)-2-(3-benzylureido)-N-(1-((3-chloro-2-methoxybenzyl)amino)-1,2-dioxopentan-3-yl)-4-methylpentanamide], 543 nM corresponded to half-maximal inhibition (IC50).
